Assay [1] deals with HCT116 MTAP WT cells. The experiment in a line: Proliferation inhibition of HCT116 cells in vitro (CellTiter Glo, 6 days). It is filed as cell-based. The conditions noted are these: Homo sapiens, HCT-116, 144 h, read-out: Cell proliferation inhibition rate HCT116 MTAP WT IC50 (nm). Background: Cellular ATP, detected with luciferase, serves as a proxy for viable cell number.
Assay [2] relates to HCT116-MTAP-KO (MTAP null) cells. Briefly: Proliferation inhibition of HCT116 MTAP-KO cells in vitro (CellTiter Glo, 6 days). The settings on record: HCT116-MTAP null, 144 h, read-out: Cell proliferation inhibition rate HCT116-MTAP null IC50 (nm). It is filed as cell-based.

Structures are written as SMILES. pIC50: −log10 of the molar value.

Take `CCN(Cc1ccc2c(c1)CCO2)C(=O)c1cc2c(cc1F)nc(N)c1cnc(C)n12` [Example 216]: the pIC50 in assay [1] was 5.00 to 6.00; in assay [2] it was 6.00 to 7.00.

In the case of `CCN(Cc1cn2cc(CCN3CCOCC3)ccc2n1)C(=O)c1cc2c(cc1F)nc(N)c1cnc(C)n12` [Example 217], the figures for the pIC50 in assay [1] and in assay [2] were 5.00 to 6.00 and 6.00 to 7.00, respectively.

With `CCN(Cc1cc2ccc(C(F)(F)F)cn2n1)C(=O)c1cc2c(cc1F)nc(N)c1c(C)ncn12` [Example 218], the pIC50 was 5.00 to 6.00 in assay [1] and more than 7.00 in assay [2].

Consider `Cc1ncc2c(N)nc3cc(F)c(C(=O)N(Cc4ccc5c(c4)CCO5)c4cnn(C)c4)cc3n12` [Example 219], for which the pIC50 in assay [1] is 5.00 to 6.00; in assay [2] it was 6.00 to 7.00.

With `Cc1ncn2c1c(N)nc1cc(F)c(C(=O)N(c3cnn(C)c3)C3COc4ccccc43)cc12` (centres unmarked) [Example 221], the pIC50 in assay [1] is 5.00 to 6.00; in assay [2], more than 7.00.

As for `CCN(C(=O)c1cc2c(cc1F)nc(N)c1cnc(C)n12)C1COc2cc(C(F)(F)F)ccc21` (centres unmarked) [Example 222], the pIC50 is 5.00 to 6.00 in assay [1] and more than 7.00 in assay [2].

Consider `CCN(C(=O)c1cc2c(cc1F)nc(N)c1c(C)ncn12)C1COc2cc(-c3cccnc3)ccc21` (centres unmarked) [Example 223], for which the figures for the pIC50 in assay [1] and in assay [2] were 5.00 to 6.00 and 6.00 to 7.00, respectively.

Consider `CCN(C(=O)c1cc2c(cc1F)nc(N)c1c(C)ncn12)C1COc2ccccc21` (centres unmarked) [Example 224], for which the pIC50 in assay [1] was 5.00 to 6.00; in assay [2] it was 6.00 to 7.00.

For the compound `Cc1ncc2c(N)nc3cc(F)c(C(=O)N(c4cnn(C)c4)C4COc5ccccc54)cc3n12` (centres unmarked) [Example 225], the pIC50 is 5.00 to 6.00 in assay [1] and more than 7.00 in assay [2].

Consider `Cc1ncn2c1c(N)nc1cc(F)c(C(=O)N(C)C3COc4cc(-c5cnn(C)c5)ccc43)cc12` (centres unmarked) [Example 226], for which the pIC50 is 5.00 to 6.00 in assay [1] and 6.00 to 7.00 in assay [2].

For `Cc1nn(C)cc1N(Cc1cc2ccccn2n1)C(=O)c1cc2c(cc1F)nc(N)c1cnc(C)n12` [Example 227], the results for the pIC50 in assay [1] and in assay [2] were 5.00 to 6.00 and more than 7.00, respectively.

For the compound `CCN(C(=O)c1cc2c(cc1F)nc(N)c1c(C)ncn12)C1COc2cc(Br)cnc21` (centres unmarked) [Example 228], the pIC50 was 5.00 to 6.00 in assay [1] and 6.00 to 7.00 in assay [2].

Consider `COc1ccc(N(Cc2cn3ccccc3n2)C(=O)c2cc3c(cc2F)nc(N)c2cnc(C)n23)cn1` [Example 229], for which the pIC50 is 5.00 to 6.00 in assay [1] and more than 7.00 in assay [2].

In the case of `Cc1ncc2c(N)nc3cc(F)c(C(=O)N(Cc4cn5cc(C(F)(F)F)ccc5n4)C4CCOC4)cc3n12` (centres unmarked) [Example 230], the figures for the pIC50 in assay [1] and in assay [2] were 5.00 to 6.00 and 6.00 to 7.00, respectively.

Consider `Cc1nn(C)cc1N(Cc1cn2ncccc2n1)C(=O)c1cc2c(cc1F)nc(N)c1cnc(C)n12` [Example 231], for which the pIC50 was 5.00 to 6.00 in assay [1] and 6.00 to 7.00 in assay [2].

With `Cc1ncc2c(N)nc3cc(F)c(C(=O)N(Cc4cc5ccccn5n4)C4CCOC4)cc3n12` (centres unmarked) [Example 232], the pIC50 in assay [1] is 5.00 to 6.00; in assay [2], 6.00 to 7.00.

Consider `Cc1nn(C)cc1N(Cc1cn2cc(C(F)(F)F)ccc2n1)C(=O)c1cc2c(cc1F)nc(N)c1c(C)ncn12` [Example 233], for which the pIC50 is 5.00 to 6.00 in assay [1] and more than 7.00 in assay [2].

Consider `Cc1nn(C)cc1N(Cc1cn2cc(C(F)(F)F)ccc2n1)C(=O)c1cc2c(cc1F)nc(N)c1cnc(C)n12` [Example 234], for which the figures for the pIC50 in assay [1] and in assay [2] were 5.00 to 6.00 and more than 7.00, respectively.

`Cc1nn(C)cc1N(Cc1cc2ccc(C(F)(F)F)cn2n1)C(=O)c1cc2c(cc1F)nc(N)c1c(C)ncn12` [Example 235]: the pIC50 in assay [1] and in assay [2] was more than 7.00 throughout.

As for `Cc1nn(C)cc1N(Cc1cc2ccc(C(F)(F)F)cn2n1)C(=O)c1cc2c(cc1F)nc(N)c1cnc(C)n12` [Example 236], the results for the pIC50 in assay [1] and in assay [2] were 5.00 to 6.00 and more than 7.00, respectively.

Take `Cc1nn(C)cc1N(Cc1nc2ccccc2[nH]1)C(=O)c1cc2c(cc1F)nc(N)c1c(C)ncn12` [Example 237]: the pIC50 in assay [1] was 5.00 to 6.00; in assay [2], 6.00 to 7.00.

Turning to `Cc1ncc2c(N)nc3cc(F)c(C(=O)N(Cc4cn5cc(C(F)(F)F)ccc5n4)c4ccnn4C)cc3n12` [Example 239], the pIC50 in assay [1] is 5.00 to 6.00; in assay [2], more than 7.00.

For the compound `Cc1ncc2c(N)nc3cc(F)c(C(=O)N(Cc4cn5cc(C(F)(F)F)ccc5n4)c4c(F)cnn4C)cc3n12` [Example 241, 4-amino-7-fluoro-N-(4-fluoro-2-methyl-pyrazol-3-yl)-1-methyl-N-[[6-(trifluoromethyl)imidazolo [1,2-a]pyridin-2-yl]methyl] imidazolo [1,5-a] quinoxalin-8-carboxamide], the pIC50 in assay [1] was 6.00 to 7.00; in assay [2], more than 7.00.

With `CCn1nccc1N(Cc1cn2cc(C(F)(F)F)ccc2n1)C(=O)c1cc2c(cc1F)nc(N)c1cnc(C)n12` [Example 242], the pIC50 in assay [1] is 6.00 to 7.00; in assay [2] it was more than 7.00.

As for `Cc1ncc2c(N)nc3cc(F)c(C(=O)N(Cc4cn5cc(CN6CCOCC6)ccc5n4)c4ccnn4C)cc3n12` [Example 243], the values for the pIC50 in assay [1] and in assay [2] were 5.00 to 6.00 and 6.00 to 7.00, respectively.

As to `Cc1ncc2c(N)nc3cc(F)c(C(=O)N(Cc4cn5ccccc5n4)c4ccnn4C)cc3n12` [Example 244], the pIC50 in assay [1] is 5.00 to 6.00; in assay [2] it was more than 7.00.

Take `Cc1ncc2c(N)nc3cc(F)c(C(=O)N(Cc4nc5ccc(C(F)(F)F)cc5[nH]4)c4ccnn4C)cc3n12` [Example 245]: the pIC50 is 5.00 to 6.00 in assay [1] and more than 7.00 in assay [2].

As to `Cc1ncc2c(N)nc3cc(F)c(C(=O)N(Cc4cn5cc(C(F)(F)F)ccc5n4)c4ccnn4C(F)F)cc3n12` [Example 246], the pIC50 in assay [1] is 5.00 to 6.00; in assay [2] it was more than 7.00.

With `CCN(Cc1cn2cc(-c3cnn(C)c3)ccc2n1)C(=O)c1cc2c(cc1F)nc(N)c1cnc(C)n12` [Example 247], the pIC50 in assay [1] is 5.00 to 6.00; in assay [2], 6.00 to 7.00.

As for `CCN(Cc1cn2cc(CN3CCOCC3)ccc2n1)C(=O)c1cc2c(cc1F)nc(N)c1c(C)ncn12` [Example 249], the values for the pIC50 in assay [1] and in assay [2] were 5.00 to 6.00 and 6.00 to 7.00, respectively.

In the case of `CCN(Cc1cc2ccccn2n1)C(=O)c1cc2c(cc1F)nc(N)c1cnc(C)n12` [Example 250], the results for the pIC50 in assay [1] and in assay [2] were 5.00 to 6.00 and more than 7.00, respectively.

As to `Cc1ncc2c(N)nc3cc(F)c(C(=O)N(Cc4cn5ccccc5n4)CC(F)F)cc3n12` [Example 252], the pIC50 was 5.00 to 6.00 in assay [1] and 6.00 to 7.00 in assay [2].

As for `Cc1ncn2c1c(N)nc1cc(F)c(C(=O)N(Cc3cn4cc(C#N)ccc4n3)c3cnn(C)c3)cc12` [Example 253], the pIC50 in assay [1] was 5.00 to 6.00; in assay [2], 6.00 to 7.00.

Turning to `Cc1ncn2c1c(N)nc1cc(F)c(C(=O)N(Cc3cn4cc(CN5CCOCC5)ccc4n3)c3cnn(C)c3)cc12` [Example 254], the pIC50 is 5.00 to 6.00 in assay [1] and 6.00 to 7.00 in assay [2].

Take `Cc1ncn2c1c(N)nc1cc(F)c(C(=O)N(Cc3cn4ccccc4n3)c3cnn(C)c3C)cc12` [Example 255]: the pIC50 in assay [1] is 5.00 to 6.00; in assay [2], 6.00 to 7.00.

For `Cc1ncn2c1c(N)nc1cc(F)c(C(=O)N(Cc3cn4ccccc4n3)c3cnn(C)c3)cc12` [Example 257], the pIC50 in assay [1] is 5.00 to 6.00; in assay [2], 6.00 to 7.00.

As for `CCN(Cc1cn2cc(-c3cnn(C)c3)ccc2n1)C(=O)c1cc2c(cc1F)nc(N)c1c(C)ncn12` [Example 258], the figures for the pIC50 in assay [1] and in assay [2] were 5.00 to 6.00 and 6.00 to 7.00, respectively.

The values above are taken from patent US20240376126A1, “PRMT5 INHIBITOR AND THE USE THEREOF” (CYTOSINLAB THERAPEUTICS CO., LTD., priority 2022, published 2024).
